Assay results: ChEMBL document CHEMBL1671730, “Rapid and sensitive liquid chromatography/mass spectrometry assay for caspofungin in human aqueous humor” (Antimicrob Agents Chemother, 2010)

Assays:
Format in all cases: ADME, organism-based, Aqueous humor of eyeball
Conditions in all cases: in vivo
Homo sapiens [1] = species: Homo sapiens; test: Drug level in human aqueous humor sample measured on basis of interday target compound concentration of 300 ng/ml by LC/MS method
Homo sapiens [2] = species: Homo sapiens; test: Drug level in human aqueous humor sample measured on basis of interday target compound concentration of 4000 ng/ml by LC/MS method
Homo sapiens [3] = species: Homo sapiens; test: Drug level in human aqueous humor sample measured on basis of intraday target compound concentration of 30 ng/ml by LC/MS method
Homo sapiens [4] = species: Homo sapiens; test: Drug level in human aqueous humor sample measured on basis of intraday target compound concentration of 4000 ng/ml by LC/MS method
Homo sapiens [5] = species: Homo sapiens; test: Drug level in human aqueous humor sample measured on basis of intraday target compound concentration of 300 ng/ml by LC/MS method
Homo sapiens [6] = species: Homo sapiens; test: Drug level in human aqueous humor sample measured on basis of interday target compound concentration of 30 ng/ml by LC/MS method

## CC[C@H](C)C[C@H](C)CCCCCCCCC(=O)N[C@H]1C[C@@H](O)[C@@H](NCCN)NC(=O)[C@@H]2[C@@H](O)CCN2C(=O)[C@H]([C@H](O)CCN)NC(=O)[C@H]([C@H](O)[C@@H](O)c2ccc(O)cc2)NC(=O)[C@@H]2C[C@@H](O)CN2C(=O)[C@H]([C@@H](C)O)NC1=O [CASPOFUNGIN]
Homo sapiens [1]
  Drug uptake: 282 ng/mL
Homo sapiens [2]
  Drug uptake: 3965 ng/mL
Homo sapiens [3]
  Drug uptake: 26.9 ng/mL
Homo sapiens [4]
  Drug uptake: 3986 ng/mL
Homo sapiens [5]
  Drug uptake: 280 ng/mL
Homo sapiens [6]
  Drug uptake: 31.4 ng/mL
